The record followed here is US9670227B2, “Thienopyrimidine derivatives, a process for their preparation and pharmaceutical compositions containing them” (LES LABORATOIRES SERVIER, priority 2013, dated 2017).

Broadly, the IC50 is the concentration needed to halve the response being measured.

The experiment addresses Mcl-1 protein (UniProtKB primary accession number: Q07820) (Homo sapiens, UniProt Q07820). As to the kind of experiment: Inhibition of Mcl-1 by fluorescence polarisation, Method 1. The class given is binding. Conditions: for IC50: fluorescence polarisation, Method 1, or Method 2, read-out: IC50 (M) Mcl-1 FP. The gist of the method:
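Buffer of 10 mM HEPES pH 7.4 with 150 mM NaCl and 0.05% Tween 20 held 5 nM Mcl-1 and 1 nM fluorescein-tagged ligand (final). Compounds were tested as 11-point serial dilutions at 5% final DMSO, and binding was read by FP.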
For orientation: Fluorescence polarisation rises when a labelled molecule tumbles more slowly, as on binding a larger partner.

Chain of Mcl-1 protein (Q07820 whole entry): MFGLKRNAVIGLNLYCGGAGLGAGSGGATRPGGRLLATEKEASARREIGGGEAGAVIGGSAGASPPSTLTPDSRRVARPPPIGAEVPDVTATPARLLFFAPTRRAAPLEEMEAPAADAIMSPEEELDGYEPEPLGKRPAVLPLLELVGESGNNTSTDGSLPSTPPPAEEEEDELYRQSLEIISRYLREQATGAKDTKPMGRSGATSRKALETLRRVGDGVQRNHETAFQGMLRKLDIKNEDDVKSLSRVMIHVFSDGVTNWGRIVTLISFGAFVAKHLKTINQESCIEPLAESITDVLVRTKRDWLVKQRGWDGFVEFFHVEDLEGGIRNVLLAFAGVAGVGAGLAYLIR

For the compound `CCc1sc2ncnc(OC(Cc3ccccc3)C(=O)O)c2c1-c1ccc(OCc2ccccc2)c(Cl)c1C` [Example 394, (2R)-2-({(5Sa)-5-[4-(benzyloxy)-3-chloro-2-methylphenyl]-6-ethylthieno[2,3-d]pyrimidin-4-yl}oxy)-3-phenylpropanoic acid], the IC50 worked out at 3.4e-08 M.

Take `CCc1sc2ncnc(OC(Cc3ccccc3)C(=O)O)c2c1-c1ccc(OCc2ccncc2)c(Cl)c1C` [Example 395, (2R)-2-({(5Sa)-5-[3-chloro-2-methyl-4-(pyridin-4-ylmethoxy)phenyl]-6-ethylthieno[2,3-d]pyrimidin-4-yl}oxy)-3-phenylpropanoic acid]: the 50% inhibitory concentration (IC50) was determined as 1.6e-08 M.

`CCc1sc2ncnc(OC(Cc3ccccc3)C(=O)O)c2c1-c1ccc(OCCCc2ccncc2)c(Cl)c1C` [Example 399, (2R)-2-[((5Sa)-5-{3-chloro-2-methyl-4-[3-(pyridin-4-yl)propoxy]phenyl}-6-ethylthieno[2,3-d]pyrimidin-4-yl)oxy]-3-phenylpropanoic acid]: the IC50 amounted to 1.4e-08 M.

With `CCc1sc2ncnc(OC(Cc3ccccc3)C(=O)O)c2c1-c1ccc(OCCCn2ccnc2)c(Cl)c1C` [Example 403, (2R)-2-[((5Sa)-5-{3-chloro-4-[3-(1H-imidazol-1-yl)propoxy]-2-methylphenyl}-6-ethylthieno[2,3-d]pyrimidin-4-yl)oxy]-3-phenylpropanoic acid], the IC50 turned out to be 1.4e-08 M.

Turning to `CCc1sc2ncnc(OC(Cc3ccccc3)C(=O)O)c2c1-c1ccc(OCCCO)c(Cl)c1C` [Example 405, (2R)-2-({(5Sa)-5-[3-chloro-4-(3-hydroxypropoxy)-2-methylphenyl]-6-ethylthieno[2,3-d]pyrimidin-4-yl}oxy)-3-phenylpropanoic acid], the IC50 was 7.4e-09 M.

On to `CCc1sc2ncnc(OC(Cc3ccccc3)C(=O)O)c2c1-c1ccc(OCCN(C)C)cc1C` [Example 409, (2R)-2-[((5Sa)-5-{4-[2-(dimethylamino)ethoxy]-2-methylphenyl}-6-ethylthieno[2,3-d]pyrimidin-4-yl)oxy]-3-phenylpropanoic acid], for which the IC50 is 2e-07 M.

Regarding `CCc1sc2ncnc(OC(Cc3ccccc3)C(=O)O)c2c1-c1ccc(OCCN(C)C)cc1C` [Example 410, (2R)-2-[((5Ra)-5-{4-[2-(dimethylamino)ethoxy]-2-methylphenyl}-6-ethylthieno[2,3-d]pyrimidin-4-yl)oxy]-3-phenylpropanoic acid], the IC50 was 2.2e-06 M.

Take `CCc1sc2ncnc(OC(Cc3ccccc3)C(=O)O)c2c1-c1ccc(OCCN2CCN(C)CC2)cc1C` [Example 416, (2R)-2-[(6-ethyl-(5Ra)-5-{2-methyl-4-[2-(4-methylpiperazin-1-yl)ethoxy]phenyl}thieno[2,3-d]pyrimidin-4-yl)oxy]-3-phenylpropanoic acid]: the IC50 stood at 7e-07 M.

Regarding `CCc1sc2ncnc(OC(Cc3ccccc3)C(=O)O)c2c1-c1ccc(OCCN2CCN(C)CC2)cc1C` [Example 417, (2R)-2-[(6-ethyl-(5Sa)-5-{2-methyl-4-[2-(4-methylpiperazin-1-yl)ethoxy]phenyl}thieno[2,3-d]pyrimidin-4-yl)oxy]-3-phenylpropanoic acid], the half-inhibitory concentration (IC50) was 1.5e-07 M.

Take `CCc1sc2ncnc(O[C@H](Cc3ccccc3)C(=O)O)c2c1-c1ccc(OCCN2CCOCC2)c(Cl)c1C` [Example 421, (2R)-2-[((5Ra)-5-{3-chloro-2-methyl-4-[2-(morpholin-4-yl)ethoxy]phenyl}-6-ethylthieno[2,3-d]pyrimidin-4-yl)oxy]-3-phenylpropanoic acid]: the “percentage fluorescence polarisation inhibition, Mcl-1 FP” value (partial inhibitors, @ 10 uM test compound) turned out to be 38.1% @ 10 uM.

Turning to `CCc1sc2ncnc(OC(Cc3ccccc3)C(=O)O)c2c1-c1ccc(OCCO)c(Cl)c1C` [Example 423, (2R)-2-({(5Sa)-5-[3-chloro-4-(2-hydroxyethoxy)-2-methylphenyl]-6-ethylthieno[2,3-d]pyrimidin-4-yl}oxy)-3-phenylpropanoic acid], the IC50 came out at 5.3e-08 M.

Turning to `CCc1sc2ncnc(OC(Cc3ccccc3)C(=O)O)c2c1-c1ccc(OCCOC)c(Cl)c1C` [Example 424, (2R)-2-({(5Sa)-5-[3-chloro-4-(2-methoxyethoxy)-2-methylphenyl]-6-ethylthieno[2,3-d]pyrimidin-4-yl}oxy)-3-phenylpropanoic acid], the IC50 came out at 9.6e-08 M.

Regarding `CCc1sc2ncnc(OC(Cc3ccccc3)C(=O)O)c2c1-c1ccc(OCCOCCOC)c(Cl)c1C` [Example 425, (2R)-2-[((5Sa)-5-{3-chloro-4-[2-(2-methoxyethoxy)ethoxy]-2-methylphenyl}-6-ethylthieno[2,3-d]pyrimidin-4-yl)oxy]-3-phenylpropanoic acid], the IC50 amounted to 9.6e-09 M.

Turning to `CCc1sc2ncnc(OC(Cc3ccccc3)C(=O)O)c2c1-c1cc([N+](=O)[O-])c(O)c(Cl)c1C` [Example 426, (2R)-2-{[(5Sa)-5-(3-chloro-4-hydroxy-2-methyl-5-nitrophenyl)-6-ethylthieno[2,3-d]pyrimidin-4-yl]oxy}-3-phenylpropanoic acid], the IC50 was 4.6e-09 M.

In the case of `CCc1sc2ncnc(OC(Cc3ccccc3)C(=O)O)c2c1-c1cc(Br)c(O)c(Cl)c1C` [Example 427, (2R)-2-{[(5Sa)-5-(5-bromo-3-chloro-4-hydroxy-2-methylphenyl)-6-ethylthieno[2,3-d]pyrimidin-4-yl]oxy}-3-phenylpropanoic acid], the IC50 was determined as 4.7e-09 M.

Regarding `CCc1sc2ncnc(OC(Cc3ccccc3)C(=O)O)c2c1-c1cc(Cl)c(O)c(Cl)c1C` [Example 428, (2R)-2-{[(5Sa)-5-(3,5-dichloro-4-hydroxy-2-methylphenyl)-6-ethylthieno[2,3-d]pyrimidin-4-yl]oxy}-3-phenylpropanoic acid], the IC50 came to 7.5e-09 M.

Turning to `CCc1sc2ncnc(OC(Cc3ccccc3)C(=O)O)c2c1-c1cc(Cl)c(O)c(Cl)c1C` [Example 429, (2R)-2-{[(5Ra)-5-(3,5-dichloro-4-hydroxy-2-methylphenyl)-6-ethylthieno[2,3-d]pyrimidin-4-yl]oxy}-3-phenylpropanoic acid], the IC50 is 5.3e-08 M.

Take `CCc1sc2ncnc(OC(Cc3ccccc3)C(=O)O)c2c1-c1cc(CN2CCN(C)CC2)c(O)c(Cl)c1C` [Example 430, (2R)-2-[((5Sa)-5-{3-chloro-4-hydroxy-2-methyl-5-[(4-methylpiperazin-1-yl)methyl]phenyl}-6-ethylthieno[2,3-d]pyrimidin-4-yl)oxy]-3-phenylpropanoic acid]: the IC50 came to 1.4e-07 M.

On to `CCc1sc2ncnc(OC(Cc3ccccc3)C(=O)O)c2c1-c1cc(N)c(O)c(Cl)c1C` [Example 431, (2R)-2-{[(5Sa)-5-(5-amino-3-chloro-4-hydroxy-2-methylphenyl)-6-ethylthieno[2,3-d]pyrimidin-4-yl]oxy}-3-phenylpropanoic acid], for which the IC50 was 3.2e-08 M.

For the compound `CCc1sc2ncnc(OC(Cc3ccccc3)C(=O)O)c2c1-c1cc(Cl)c(O)cc1C` [Example 438, (2R)-2-{[(5Sa)-5-(5-chloro-4-hydroxy-2-methylphenyl)-6-ethylthieno[2,3-d]pyrimidin-4-yl]oxy}-3-phenylpropanoic acid], the IC50 turned out to be 8.5e-08 M.

Turning to `CCc1sc2ncnc(OC(Cc3ccccc3)C(=O)O)c2c1-c1cc(Cl)c(O)cc1C` [Example 439, (2R)-2-{[(5Ra)-5-(5-chloro-4-hydroxy-2-methylphenyl)-6-ethylthieno[2,3-d]pyrimidin-4-yl]oxy}-3-phenylpropanoic acid], the IC50 was 2.5e-07 M.
